Reference: publication PMC12794274, “Therapeutic potential of Sheng-Xian-Tang in doxorubicin-induced chronic heart failure by regulation of phenylalanine metabolism disruption” (Chinese Medicine, 2026)
pIC50: −log10 of the molar value.

Legend:
[1] = test system: heart tissues; test: Transmission electron microscopy of heart tissue; format: in vivo, rat; settings: experiment II; DOX alone, co-treatments vs DOX
Procedure: Freshly excised heart tissues were immediately fixed in 2.5% glutaraldehyde at 4 °C overnight. After washing with 0.1 M cacodylate trihydrate buffer, samples were post-fixed with 1% osmium tetroxide for 1 h. Tissues were then dehydrated through a graded ethanol series, incubated in acetone, and embedded in epoxy resin. Ultrathin sections were mounted on copper grids and imaged using a Hitachi HT7800 transmission electron microscope (Tokyo, Japan).

[2] = test system: DOX-induced CHF rats; test: Serum biochemical parameters (BNP, CK, LDH, ALT, AST) by ELISA kits; format: in vivo, rat; settings: DOX group, experiment I
Procedure: Serum biochemical parameters including brain natriuretic peptide (BNP), creatine kinase (CK), lactate dehydrogenase (LDH), alanine aminotransferase (ALT), and aspartate aminotransferase (AST) were measured using commercial ELISA kits (Nanjing Jiancheng Bioengineering Institute, Nanjing, China) according to the manufacturer's instructions. Superoxide dismutase (SOD), and malondialdehyde (MDA) levels in liver and heart tissues were measured using assay kits from […] Biotechnology (Changsha, China). Phenylalanine and tyrosine concentrations in the cell were determined using an ELISA kit from Abmart (Shanghai, China).

[3] = test system: AML12 cells; test: AML12 cell viability (CCK8); format: cell-based
Procedure: Mouse hepatocellular cell lines (AML12), purchased from the Shanghai Cell Bank of Chinese Academy of Sciences (Shanghai, China), were cultured in Dulbecco’s Modified Eagle Medium (DMEM) supplemented with 10% fetal bovine serum (FBS) and 2 mM L-glutamine and 1% pyruvate and maintained at 37 °C in a […], 5% CO2 incubator. Cells were seeded at a density of 5 × 10^5 cells/well in 6-well plates. […] Cells’ survival rate was detected by Cell Counting Kit-8 (CCK8) Reagents (Thermo Scientific, Singapore).

[4] = test system: phenylalanine hydroxylase (PAH); test: PAH expression in liver and heart (western blotting, immunofluorescence); format: in vivo, rat
Procedure: Immunofluorescence staining was performed on tissue sections to detect phenylalanine hydroxylase (PAH), prostaglandin-endoperoxide synthase 2 (PTGS2), and reactive oxygen species (ROS). Primary antibodies against PAH and PTGS2 were used, while ROS was detected using the DCFH-DA probe. Nuclei were counterstained with DAPI. Images were captured using a fluorescence microscope.
Protein was extracted from liver or heart tissue samples (30 mg) using lysis buffer. Total protein concentration was determined using a BCA protein assay kit (Thermo Fisher Scientific, USA). Equal amounts of protein from each sample were separated on 10–12% SDS-PAGE gels and transferred to PVDF membranes. Membranes were blocked with quick blocking buffer for 30 min, then incubated with anti-PAH primary antibody (1:1000 dilution) overnight at 4 °C. After washing, membranes were incubated with a secondary antibody for 1 h at 37 °C. Protein bands were visualized using an Odyssey infrared imaging system (JS-1070, Shanghai Peiqing Science & Technology Co., Ltd, China). Band intensities were quantified using ImageJ software.

[5] = test system: phenylalanine metabolism; test: Phenylalanine and tyrosine levels in rat serum, liver and heart tissues (LC/MS); format: in vivo; settings: DOX-induced CHF rats, day 39
Procedure: Phenylalanine and tyrosine in the different rat bio-samples were analyzed by LC/MS using an Agilent 1290 Ultra high-performance liquid chromatography (UHPLC) and an Agilent 6460 triple-quadrupole tandem mass spectrometer (QQQ-MS) (Agilent Inc, USA). Data were acquired by using an Agilent Zorbax SB-C18 column (3.0 × 150 mm, 5 μm) as described previously.

[6] = DOX vs CON group, experiment I, p < 0.001
[7] = experiment II, DOX vs CON, co-treatments vs DOX

COc1cccc2c1C(=O)c1c(O)c3c(c(O)c1C2=O)C[C@@](O)(C(=O)CO)C[C@@H]3O[C@H]1C[C@H](N)[C@H](O)[C@H](C)O1 [DOX, Doxorubicin]
mitochondrial ultrastructure of heart (electron microscopy) [1]: mitochondrial shrinkage, increased membrane density, and marked reduction and shortening of cristae with focal vacuolization | serum ALT and AST levels [2]: increased | cell viability [3]: significant reduction | pIC50 ([3]; Mus musculus, AML12, read-out: DOX concentration that caused 50% cell death (IC50)): 6.00 | ectopic heart PAH expression [4, 6]: significantly increased | liver PAH expression [4, 6]: significantly decreased | PAH expression in heart tissue [4, 7]: significantly raising | PAH expression in liver tissue [4, 7]: substantially lowered | phenylalanine levels in hepatic and cardiac tissues and plasma [5]: significant elevation
